Reference: patent US20120165331A1, “Di/tri-aza-spiro-C9-C11alkanes” (priority 2010, published 2012)

Tests used:
[1] = target: T1, human orexin 1 receptor (Homo sapiens, UniProt O43613); assay: Calcium accumulation in cells (FLIPR), antagonism of orexin A, human orexin 1 receptor; format: cell-based; conditions: for inhibition at 10 µM: measured at a concentration of 10 μM of compound, read-out: FLIPR hOx1R % inhibition; for Ki: calcium accumulation, antagonism of orexin A, Cheng-Prusoff corrected, read-out: FLIPR hOx1R Ki
T1 construct: expressed in transfected cells
T1 sequence (O43613 1-425): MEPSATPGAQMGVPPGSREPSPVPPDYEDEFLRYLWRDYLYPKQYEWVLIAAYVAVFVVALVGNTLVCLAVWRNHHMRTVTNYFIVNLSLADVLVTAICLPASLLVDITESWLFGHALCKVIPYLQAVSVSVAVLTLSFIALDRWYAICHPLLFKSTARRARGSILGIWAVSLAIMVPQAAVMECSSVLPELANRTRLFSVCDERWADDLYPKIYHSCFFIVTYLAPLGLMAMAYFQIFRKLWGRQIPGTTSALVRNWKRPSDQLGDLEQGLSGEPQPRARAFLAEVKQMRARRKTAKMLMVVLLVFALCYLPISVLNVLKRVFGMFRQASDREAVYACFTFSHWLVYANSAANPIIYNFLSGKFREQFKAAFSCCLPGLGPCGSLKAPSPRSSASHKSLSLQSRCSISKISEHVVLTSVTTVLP
Procedure: (§1) Calcium Accumulation in Cells (FLIPR):
(§2) Cells expressing human orexin 1 or human orexin 2 receptors, were seeded at 8,000 cells/well in 384 well black-walled clear bottom, poly-D-lysine coated plates. After 24 h, the medium was removed and cells were washed once with phosphate buffered saline and serum-deprived overnight in assay buffer (130 mM NaCl, 5.4 mM KCl, 1.8 mM CaCl2, 0.8 mM MgSO4, 0.9 mM NaH2PO4, 25 mM glucose, 20 mM HEPES, pH 7.4) containing bovine serum albumin (1% w/v).
(§3) On the day of the experiment, the cells seeded in black plates were treated with assay buffer containing the Ca^2+ sensitive fluorescent dye Fluo-4-AM (2 μM), and probenecid (0.1 mM). After 1 h plates were washed twice with, and resuspended in, assay buffer containing probenecid (0.1 mM) using a multi plate washer. The plates were placed into a FLIPR II (Fluorometric Imaging Plate Reader, Molecular Devices, Sunnyvale, Calif., USA) and baseline fluorescence (fluorescence light units, FLU) was measured (5 measurements, 2 S each; laser excitation 488 nm at 0.6-1 W, CCD camera exposure 0.4 s) before addition of buffer alone (basal) or containing test compounds (either compound of formula I alone, agonist alone or agonist in the presence of various concentrations of compounds of formula I). Fluorescence measurements were then continued every 1 S for 120 S followed by every 4 S for 240 S.
(§4) The measurements were typically made in two sequences:
(§5) Compounds of formula I were tested usually in a concentration range from 10^−9 M to 10^−5 M.
(§6) In the second round, performed one hour later (to allow for equilibration), Orexin A was tested either in the absence (calibration curves, Orexin A agonist controls) or in the presence of compounds of formula Ito determine antagonism.
(§7) Inhibition data is expressed in Table 1 as Kd [μM], converted by the Cheng and Prusoff correction (Kd=IC50/1+(L/EC50)), where IC50 is the 50% inhibition value determined in concentration response inhibition curves, EC50 is the half maximal activation concentration determined for orexin A in concentration response curves and L is the concentration of orexin A used in inhibition experiments performed in with a submaximal concentration of orexin A in the presence of up to 8 increasing concentrations of compound of formula I. Inhibition data is also expressed in Table 1 as % inhibition value measured at a concentration of 10 μM of selected compounds of formula I.

[2] = target: T2, human orexin 2 receptor (Homo sapiens, UniProt O43614); assay: Calcium accumulation in cells (FLIPR), antagonism of orexin A, human orexin 2 receptor; format: cell-based; conditions: for Ki: calcium accumulation, antagonism of orexin A, Cheng-Prusoff corrected, read-out: FLIPR hOx2R Ki; for inhibition at 10 µM: measured at a concentration of 10 μM of compound, read-out: FLIPR hOx2R % inhibition
T2 construct: expressed in transfected cells
T2 sequence (O43614 1-444): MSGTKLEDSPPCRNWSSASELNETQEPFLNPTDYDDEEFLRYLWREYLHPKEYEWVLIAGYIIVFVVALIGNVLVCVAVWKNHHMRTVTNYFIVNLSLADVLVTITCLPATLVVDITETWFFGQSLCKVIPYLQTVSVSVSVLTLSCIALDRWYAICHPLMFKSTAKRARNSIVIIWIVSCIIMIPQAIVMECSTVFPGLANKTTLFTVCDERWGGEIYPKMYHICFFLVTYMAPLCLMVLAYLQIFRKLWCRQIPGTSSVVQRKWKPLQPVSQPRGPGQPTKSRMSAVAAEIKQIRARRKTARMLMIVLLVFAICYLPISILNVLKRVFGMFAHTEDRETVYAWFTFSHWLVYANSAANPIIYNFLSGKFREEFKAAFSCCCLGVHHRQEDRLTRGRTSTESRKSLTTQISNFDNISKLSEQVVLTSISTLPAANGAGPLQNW
Procedure: as §1, §2, §3, §4, §5, §6, §7

## COc1ccnc(N2CCC3(CCN(Cc4ccccc4-c4nc(C)no4)C3=O)CC2)n1 [Example 3.17, 8-(4-Methoxy-pyrimidin-2-yl)-2-[2-(3-methyl-[1,2,4]oxadiazol-5-yl)-benzyl]-2,8-diaza-spiro[4.5]decan-1-one]
[1]
  inhibition at 10 µM: 37%
[2]
  Ki: 0.298 µM

## Cc1cc(C)nc(N2CCC3(CC2)NCCN(Cc2nn(C)cc2-c2cccc(-n4nc(C)cc4C)c2)C3=O)n1 [Example 1.60, 4-((4-(3-(3,5-Dimethyl-1H-pyrazol-1-yl)phenyl)-1-methyl-1H-pyrazol-3-yl)methyl)-9-(4,6-dimethylpyrimidin-2-yl)-1,4,9-triazaspiro[5.5] undecan-5-one]
[1]
  inhibition at 10 µM: 13%
[2]
  inhibition at 10 µM: 34%

## COCc1cccc(-c2oc(C)nc2CN2CCNC3(CCN(c4nc(C)cc(OC)n4)CC3)C2=O)c1 [Example 1.32, 9-(4-Methoxy-6-methylpyrimidin-2-yl)-4-((5-(3-(methoxymethyl)phenyl)-2-methyl-oxazol-4-yl)methyl)-1,4,9-triazaspiro[5.5] undecan-5-one]
[1]
  Ki: 2.84 µM
[2]
  Ki: 0.084 µM

## COc1ccnc(N2CCC3(CCN(Cc4c[nH]c5ccccc45)C3=O)CC2)n1 [Example 3.14, 2-(1H-Indol-3-ylmethyl)-8-(4-methoxy-pyrimidin-2-yl)-2,8-diaza-spiro[4.5]decan-1-one]
[1]
  Ki: 2.77 µM
[2]
  Ki: 0.134 µM

## O=C1N(Cc2c[nH]c3ccccc23)CCC12CCN(c1cc3c(nn1)CCOC3)C2 (stereo not shown) [Example 5.24, 2-((1H-indol-3-yl)methyl)-7-(7,8-dihydro-5H-pyrano[4,3-c]pyridazin-3-yl)-2,7-diazaspiro[4.4]nonan-1-one]
[1]
  inhibition at 10 µM: 25%
[2]
  inhibition at 10 µM: 54%

## Cc1cc(C)nc(N2CCC3(CCN(Cc4ccccc4-c4nc(C)no4)C3=O)CC2)n1 [Example 3.19, 8-(4,6-Dimethyl-pyrimidin-2-yl)-2-[2-(3-methyl-[1,2,4]oxadiazol-5-yl)-benzyl]-2,8-diaza-spiro[4.5]decan-1-one]
[1]
  inhibition at 10 µM: 22%
[2]
  Ki: 0.127 µM

## O=C1N(Cc2c[nH]c3ccccc23)CCC12CCN(c1cnc3ccccc3n1)C2 (stereo not shown) [Example 5.5, 2-((1H-Indol-3-yl)methyl)-7-(quinoxalin-2-yl)-2,7-diazaspiro[4.4]nonan-1-one]
[1]
  Ki: 1.23 µM
[2]
  Ki: 0.43 µM

## Cc1cncc(N2CCC3(CC2)COC(=O)N3Cc2c[nH]c3ccccc23)n1 [Example 8.23, 1-((1H-Indol-3-yl)methyl)-8-(6-methylpyrazin-2-yl)-3-oxa-1,8-diazaspiro[4.5]decan-2-one]
[1]
  inhibition at 10 µM: < 10%
[2]
  inhibition at 10 µM: 20%

## COc1ccc(-c2cn(C)nc2CN2CCNC3(CCN(c4nc(C)cc(C)n4)CC3)C2=O)cc1 [Example 1.36, 9-(4,6-Dimethyl-pyrimidin-2-yl)-4-((4-(4-methoxyphenyl)-1-methyl-1H-pyrazol-3-yl)methyl)-1,4,9-triazaspiro[5.5] undecan-5-one]
[1]
  inhibition at 10 µM: 41%
[2]
  Ki: 0.187 µM

## Cc1ccnc(N2CCC3(CC2)COCC(=O)N3Cc2cccc3[nH]ccc23)n1 [Example 8.19, 1-((1H-Indol-4-yl)methyl)-9-(4-methylpyrimidin-2-yl)-4-oxa-1,9-diazaspiro[5.5]undecan-2-one]
[1]
  inhibition at 10 µM: 28%
[2]
  Ki: 0.697 µM

## Cc1cc(C)nc(N2CCC3(CC2)NCCN(Cc2nn(C)cc2-c2cccc(F)c2)C3=O)n1 [Example 1.43, 9-(4,6-Dimethyl-pyrimidin-2-yl)-4-((4-(3-fluorophenyl)-1-methyl-1H-pyrazol-3-yl)methyl)-1,4,9-triazaspiro[5.5] undecan-5-one]
[1]
  inhibition at 10 µM: 27%
[2]
  Ki: 0.447 µM

## Cc1cc(C)nc(N2CCC3(CCN(Cc4nn(C)nc4-c4ccccc4)C3=O)CC2)n1 [Example 3.24, 8-(4,6-dimethylpyrimidin-2-yl)-2-((2-methyl-5-phenyl-2H-1,2,3-triazol-4-yl)methyl)-2,8-diazaspiro[4.5]decan-1-one]
[1]
  inhibition at 10 µM: 25%
[2]
  Ki: 0.117 µM

## Cc1noc(-c2ccnc(N3CCC4(CCN(Cc5c[nH]c6ccccc56)C4=O)C3)c2)n1 (stereo not shown) [Example 5.34, 2-((1H-indol-3-yl)methyl)-7-(4-(3-methyl-1,2,4-oxadiazol-5-yl)pyridin-2-yl)-2,7-diazaspiro[4.4]nonan-1-one]
[1]
  Ki: 2.15 µM
[2]
  Ki: 1.47 µM

## COc1cc(C)nc(N2CCC3(CCN(Cc4cccc5[nH]ccc45)C3=O)C2)n1 (stereo not shown) [Example 5.10, 2-((1H-Indol-4-yl)methyl)-7-(4-methoxy-6-methylpyrimidin-2-yl)-2,7-diazaspiro[4.4]nonan-1-one]
[1]
  Ki: 1.34 µM
[2]
  Ki: 0.629 µM

## O=C1CCC2(CCN(c3cnc4ccccc4n3)C2)N1Cc1cccc2[nH]ccc12 (stereo not shown) [Example 9.1]
[1]
  Ki: 0.666 µM
[2]
  Ki: 1.38 µM

## Cc1cc(C)nc(N2CCC3(CC2)NCCN(Cc2nn(C)cc2-c2cccc(N(C)C)c2)C3=O)n1 [Example 1.58]
[1]
  inhibition at 10 µM: 17%
[2]
  Ki: 0.458 µM

## Cc1cc(C)nc(N2CCC3(CC2)NCCN(Cc2conc2-c2ccccc2)C3=O)n1 [Example 1.82, 9-(4,6-dimethyl-pyrimidin-2-yl)-4-((3-phenyl-isoxazol-4-yl)methyl)-1,4,9-triazaspiro[5.5] undecan-5-one]
[1]
  inhibition at 10 µM: 57%
[2]
  Ki: 0.655 µM

## Cc1cccc(-c2cn(C)nc2CN2CCNC3(CCN(c4nc(C)cc(C)n4)CC3)C2=O)c1 [Example 1.38, 9-(4,6-Dimethyl-pyrimidin-2-yl)-4-((1-methyl-4-(m-tolyl)-1H-pyrazol-3-yl)methyl)-1,4,9-triazaspiro[5.5] undecan-5-one]
[1]
  inhibition at 10 µM: 29%
[2]
  Ki: 0.204 µM

## Cc1cc(C)nc(N2CCC3(CC2)NCN(Cc2c[nH]c4ccccc24)C3=O)n1 [Example 4.1, 3-((1H-indol-3-yl)methyl)-8-(4,6-dimethylpyrimidin-2-yl)-1,3,8-triazaspiro[4.5]decan-4-one]
[1]
  inhibition at 10 µM: 12%
[2]
  Ki: 2.12 µM

## COc1ccnc(N2CCC3(CC2)NCCN(Cc2nc(C)oc2-c2ccccc2)C3=O)n1 [Example 1.22, 9-(4-Methoxy-pyrimidin-2-yl)-4-((2-methyl-5-phenyloxazol-4-yl)methyl)-1,4,9-triazaspiro[5.5] undecan-5-one]
[1]
  inhibition at 10 µM: 19%
[2]
  Ki: 1.02 µM

## Cc1ccnc(N2CCC3(CC2)NCCN(Cc2nc(C)oc2-c2ccccc2)C3=O)n1 [Example 1.20, 9-(4-Methyl-pyrimidin-2-yl)-4-((2-methyl-5-phenyloxazol-4-yl)methyl)-1,4,9-triazaspiro[5.5] undecan-5-one]
[1]
  inhibition at 10 µM: 12%
[2]
  Ki: 1.84 µM

## CC(C)c1ccnc(N2CCC3(CCN(Cc4c[nH]c5ccccc45)C3=O)C2)n1 (stereo not shown) [Example 5.39, 2-((1H-indol-3-yl)methyl)-7-(4-isopropylpyrimidin-2-yl)-2,7-diazaspiro[4.4]nonan-1-one]
[1]
  Ki: 1.21 µM
[2]
  Ki: 0.283 µM

## COc1ccnc(N2CCC3(CCCN(Cc4ccccc4-c4nc(C)no4)C3=O)C2)n1 (stereo not shown) [Example 7.5, 2-(4-Methoxypyrimidin-2-yl)-7-(2-(3-methyl-1,2,4-oxadiazol-5-yl)benzyl)-2,7-diazaspiro[4.5]decan-6-one]
[1]
  Ki: 0.981 µM
[2]
  Ki: 0.221 µM
